Laboratory results taken from ChEMBL document CHEMBL4483862, “Open-source discovery of chemical leads for next-generation chemoprotective antimalarials” (2018).

Tested on: Plasmodium berghei
Assay: Luciferase/luciferin-expressing antifolate-resistant parasites were used to infect a culture of HepG2 cells that were pre-incubated with compounds. Infected hepatocytes emit light due to the luciferase reaction. Assay results are presented as the percent inhibition of light emission compared to control. […]
Assay type: functional
Details: sporozoite; for IC90: read-out: LUCIFERASE INFECTION ASSAY - IC90
[1] = read-out: LUCIFERASE INFECTION ASSAY - IC50

SMILES | IC90 [µM] | IC50 [1] [µM] | further results
Cc1cc(=O)nc(N/N=C/c2cc(C)n(-c3ccccc3Cl)c2C)[nH]1 | > 10 |  | IC50 (PBLUC_HILL_SLOPE 2.91, PBLUC_R_SQUARED 0.512, read-out: LUCIFERASE INFECTION ASSAY - IC50): 9.21 µM
O=C1CC(c2ccc(Cl)cc2)Cc2c1cnn2-c1ccc(Cl)cc1 (configuration not stated) | > 9.24 |  | IC50 (HEPG2TOX_HILL_SLOPE 2.3, HEPG2TOX_R_SQUARED 0.887, PBLUC_HILL_SLOPE 1.56, PBLUC_R_SQUARED 0.715, read-out: LUCIFERASE INFECTION ASSAY - IC50): 2.9 µM
CC1CCCC(NC(=O)CSc2nnc(O)n2Cc2ccccc2)C1C (configuration not stated) | > 10 | > 10 | 
COc1ccc(-c2csc(NC(=O)c3cc4cc5ccc(OC)cc5nc4s3)n2)cc1 | > 10 | > 10 | 
Cc1ccc(-c2nnc3n2CCCCC3)cc1NC(=O)c1ccc([N+](=O)[O-])o1 | > 10 |  | IC50 (HEPG2TOX_HILL_SLOPE 6.11, HEPG2TOX_R_SQUARED 0.316, PBLUC_HILL_SLOPE 1.35, PBLUC_R_SQUARED 0.486, read-out: LUCIFERASE INFECTION ASSAY - IC50): 6.12 µM
O=C(/C=C/c1cccnc1)c1ccc(S(=O)(=O)N2CCCC2)cc1 | 7.23 |  | IC50 (HEPG2TOX_HILL_SLOPE 1.78, HEPG2TOX_R_SQUARED 0.606, PBLUC_HILL_SLOPE 4.03, PBLUC_R_SQUARED 0.736, read-out: LUCIFERASE INFECTION ASSAY - IC50): 4.19 µM
Cc1nn(Cc2ccccc2)c(Cl)c1/C=C/C(=O)OC(C)C(=O)N1CCCC1 (configuration not stated) | 4.19 |  | IC50 (PBLUC_HILL_SLOPE 3.98, PBLUC_R_SQUARED 0.412, read-out: LUCIFERASE INFECTION ASSAY - IC50): 2.41 µM
COc1cc(OC)cc(-c2cnc3cnc(-c4ccc(Cl)cc4)cn23)c1 | 8.07 |  | IC50 (HEPG2TOX_HILL_SLOPE 2.36, HEPG2TOX_R_SQUARED 0.458, PBLUC_HILL_SLOPE 2.59, PBLUC_R_SQUARED 0.445, read-out: LUCIFERASE INFECTION ASSAY - IC50): 3.46 µM
C[S+]([O-])c1ccc(C(F)(F)F)cc1[N+](=O)[O-] (configuration not stated) | > 13 |  | IC50 (HEPG2TOX_HILL_SLOPE 9.53, HEPG2TOX_R_SQUARED 0.815, PBLUC_HILL_SLOPE 1.65, PBLUC_R_SQUARED 0.298, read-out: LUCIFERASE INFECTION ASSAY - IC50): 11.1 µM
O=C(Nc1cccc(NC(=O)c2cc(C3CC3)nc3c2nc2n3CCCCC2)c1)c1ccco1 | > 10 | > 10 | 
O=C(Nc1ccc(CN2CCCC2)cc1)c1ccc(-n2cnc3ccccc32)cc1 | > 10 |  | IC50 (HEPG2TOX_HILL_SLOPE 1.93, HEPG2TOX_R_SQUARED 0.859, PBLUC_HILL_SLOPE 3.59, PBLUC_R_SQUARED 0.621, read-out: LUCIFERASE INFECTION ASSAY - IC50): 5.74 µM
O=C1CSC(=N/N=C2\SC(CC(=O)Nc3ccc(Br)cc3)C(=O)N2Cc2ccco2)N1 (configuration not stated) | > 10 |  | IC50 (HEPG2TOX_HILL_SLOPE 1.67, HEPG2TOX_R_SQUARED 0.878, PBLUC_HILL_SLOPE 0.95, PBLUC_R_SQUARED 0.607, read-out: LUCIFERASE INFECTION ASSAY - IC50): 5.04 µM
CCN1CCN(c2ccc(S(=O)(=O)N3CCOCC3)cc2NC(=O)/C=C/c2ccc([N+](=O)[O-])cc2)CC1 | > 10 |  | IC50 (PBLUC_HILL_SLOPE 11, PBLUC_R_SQUARED 0.478, read-out: LUCIFERASE INFECTION ASSAY - IC50): 8.35 µM
COc1ccccc1-c1noc(COC(=O)c2c[nH]nc2-c2ccccc2)n1 | > 10 | > 10 | 
O=C(CN1CCN(C(=O)CN2C(=O)NC3(CCCC3)C2=O)CC1)N1CCCC1 | > 10 | > 10 | 
Cc1ccc2c(c1)CCCN2C(=S)Nc1cccc(C(F)(F)F)c1 | > 9.42 | > 9.42 | 
CC(C)c1ccc(NC(=O)c2ccc(N(C)C)c([N+](=O)[O-])c2)cc1 | 8.31 |  | IC50 (PBLUC_HILL_SLOPE 3.41, PBLUC_R_SQUARED 0.504, read-out: LUCIFERASE INFECTION ASSAY - IC50): 4.36 µM
CCN(CC)CCn1c(NC(=O)c2cc3c(C)nn(Cc4ccccc4)c3s2)nc2ccccc21 | 5.29 |  | IC50 (FFLUC_HILL_SLOPE 11, FFLUC_R_SQUARED 0.377, PBLUC_HILL_SLOPE 1.67, PBLUC_R_SQUARED 0.43, read-out: LUCIFERASE INFECTION ASSAY - IC50): 1.42 µM
Cc1cc(I)ccc1N1C(=O)C=CC1=O | > 10.5 | 5.55 | 
CCC(CC)CN1CCC2(CC1)C(=O)N(Cc1ccc(OC)cc1)C(=O)N2CC(C)C | > 7.68 | > 7.68 | 
N#Cc1ccc(OC(=O)c2c(Cl)cccc2Cl)cc1 | > 11.3 |  | IC50 (HEPG2TOX_HILL_SLOPE 15.2, HEPG2TOX_R_SQUARED 0.237, read-out: LUCIFERASE INFECTION ASSAY - IC50): > 11.3 µM

SMILES | IC90 [µM] | IC50 [1] [µM] | further results
COc1cccc(-c2cn3c(-c4ccccc4Cl)cnc3cn2)c1F | 6.25 |  | IC50 (PBLUC_HILL_SLOPE 4, PBLUC_R_SQUARED 0.571, read-out: LUCIFERASE INFECTION ASSAY - IC50): 3.61 µM
COc1ccc(-c2cc(C(=O)NNC(=S)NC3CC4CCC3C4)[nH]n2)cc1 (configuration not stated) | > 10 | > 10 | 
Cc1cccc(C(=O)Nc2sc3c(c2C(=O)N2CCCCC2)CCCCC3)c1 | 6.3 | 0.805 | 
Cc1cnc(C(=O)OCC(=O)N(CC(C)C)C2CCS(=O)(=O)C2)cn1 (configuration not stated) | > 10 |  | IC50 (HEPG2TOX_HILL_SLOPE 0.131, HEPG2TOX_R_SQUARED 0.272, PBLUC_HILL_SLOPE 1.29, PBLUC_R_SQUARED 0.0136, read-out: LUCIFERASE INFECTION ASSAY - IC50): > 10 µM
O=C1CN(C(=O)COc2ccc(F)cc2Br)CCN1 | > 10 | > 10 | 
COc1ccc(NC(=O)c2ccoc2)cc1S(=O)(=O)Nc1ccc(Br)cc1 | 1.62 |  | IC50 (HEPG2TOX_HILL_SLOPE 1.42, HEPG2TOX_R_SQUARED 0.956, PBLUC_HILL_SLOPE 2.25, PBLUC_R_SQUARED 0.81, read-out: LUCIFERASE INFECTION ASSAY - IC50): 0.611 µM
Cc1oc(-c2ccc(Cl)cc2)cc1C(=O)Nc1cccc(C(F)(F)F)c1 | > 8.69 | > 8.69 | 
COc1ccc(-c2csc3ncnc(NCC4(N5CCOCC5)CCCCC4)c23)cc1 | 9.48 |  | IC50 (PBLUC_HILL_SLOPE 4.26, PBLUC_R_SQUARED 0.161, read-out: LUCIFERASE INFECTION ASSAY - IC50): 5.66 µM
CCC(C)NC(=O)c1c(NC(=O)c2ccc(Cl)cc2Cl)nc2ccc(C)cn12 (configuration not stated) | 0.967 |  | IC50 (FFLUC_HILL_SLOPE 13.5, FFLUC_R_SQUARED 0.613, HEPG2TOX_HILL_SLOPE 1.25, HEPG2TOX_R_SQUARED 0.963, PBLUC_HILL_SLOPE 11.1, PBLUC_R_SQUARED 0.736, read-out: LUCIFERASE INFECTION ASSAY - IC50): 0.793 µM
COc1cccc(NC(=O)c2cc(C)n(Cc3cccs3)c2C)c1 | > 9.69 |  | IC50 (PBLUC_HILL_SLOPE 0.906, PBLUC_R_SQUARED 0.33, read-out: LUCIFERASE INFECTION ASSAY - IC50): 6.44 µM
CNC(=O)c1ccc(CN(Cc2ccco2)C(=O)c2cc(-c3cccs3)nn2-c2ccccc2)cc1 | 4.68 |  | IC50 (PBLUC_HILL_SLOPE 10.4, PBLUC_R_SQUARED 0.208, read-out: LUCIFERASE INFECTION ASSAY - IC50): 3.79 µM
Cc1cc(C)c(S(=O)(=O)N2CCC(C(=O)Nc3nnc(C)o3)CC2)c(C)c1 | > 10 | > 10 | 
CCc1sc2nc(SCc3cc(=O)n4cc(Br)ccc4n3)n(-c3cccc(OC)c3)c(=O)c2c1C | > 10 | > 10 | 
Cc1cc(NCc2cccc(C(F)(F)F)c2)nc(N)n1 | > 10 |  | IC50 (HEPG2TOX_HILL_SLOPE 5.66, HEPG2TOX_R_SQUARED 0.531, PBLUC_HILL_SLOPE 2.77, PBLUC_R_SQUARED 0.624, read-out: LUCIFERASE INFECTION ASSAY - IC50): 5.15 µM
CCn1nc(C(=O)N2CCN(c3ccccc3)CC2)c2c1CCN(Cc1cc(C)c(OC)cc1C)C2 | > 6.77 |  | IC50 (HEPG2TOX_HILL_SLOPE 2.53, HEPG2TOX_R_SQUARED 0.945, PBLUC_HILL_SLOPE 5.03, PBLUC_R_SQUARED 0.659, read-out: LUCIFERASE INFECTION ASSAY - IC50): 4.44 µM
CC1N(C)c2ccc(/C=C/c3nc4ccccc4s3)cc2C1(C)C (configuration not stated) | 4.73 |  | IC50 (HEPG2TOX_HILL_SLOPE 3.14, HEPG2TOX_R_SQUARED 0.947, PBLUC_HILL_SLOPE 1.36, 1.57, PBLUC_R_SQUARED 0.638, 0.693, read-out: LUCIFERASE INFECTION ASSAY - IC50): 1.03 µM
O=C(Nc1cc(C(F)(F)F)cc(C(F)(F)F)c1)c1cc2ccccc2s1 | > 8.48 |  | IC50 (PBLUC_HILL_SLOPE 0.25, PBLUC_R_SQUARED 0.0524, read-out: LUCIFERASE INFECTION ASSAY - IC50): > 8.48 µM
O=S(=O)(c1ccc(Cl)s1)N1CCC(C(c2ccccc2)c2ccccc2)CC1 | > 7.64 |  | IC50 (FFLUC_HILL_SLOPE 0.891, FFLUC_R_SQUARED 0.199, PBLUC_HILL_SLOPE 11.4, PBLUC_R_SQUARED 0.0957, read-out: LUCIFERASE INFECTION ASSAY - IC50): > 7.64 µM
COc1cccc(/C=N/NC(=O)C2CCCN(C(=S)NNC3CC4C=CC3C4)CC2)c1O (configuration not stated) | > 7.21 |  | IC50 (PBLUC_HILL_SLOPE 0.853, PBLUC_R_SQUARED 0.602, read-out: LUCIFERASE INFECTION ASSAY - IC50): 1.47 µM
Cc1ccc(-c2oc(NC(=O)c3cncc(Br)c3)c(C#N)c2-c2ccc(C)cc2)cc1 | 9.82 |  | IC50 (FFLUC_HILL_SLOPE 4.83, FFLUC_R_SQUARED 0.721, HEPG2TOX_HILL_SLOPE 9.42, HEPG2TOX_R_SQUARED 0.907, PBLUC_HILL_SLOPE 30.3, PBLUC_R_SQUARED 0.463, read-out: LUCIFERASE INFECTION ASSAY - IC50): 9.13 µM
